Test results published in US7329660B2, “Phthalazine derivatives for treating inflammatory diseases” (Novartis AG, priority 1999, dated 2008).

Legend:
[1] = target: T1, Flt-1 VEGF-receptor tyrosine kinase (Homo sapiens, UniProt P17948); experiment: Test for activity against Flt-1 VEGF-receptor tyrosine kinase; type: biochemical
T1 construct: 10 ng of the kinase domain of Flt-1
T1 sequence (P17948 827-1158 limits assumed): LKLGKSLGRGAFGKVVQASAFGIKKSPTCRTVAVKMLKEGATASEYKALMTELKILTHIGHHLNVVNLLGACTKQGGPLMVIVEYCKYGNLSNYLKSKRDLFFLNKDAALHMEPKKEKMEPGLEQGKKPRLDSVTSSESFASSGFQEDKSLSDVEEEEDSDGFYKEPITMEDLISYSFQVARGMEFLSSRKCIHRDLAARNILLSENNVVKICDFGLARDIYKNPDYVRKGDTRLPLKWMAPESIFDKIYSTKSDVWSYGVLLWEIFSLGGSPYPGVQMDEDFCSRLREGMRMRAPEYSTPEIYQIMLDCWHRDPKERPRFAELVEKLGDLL
Description: Test for activity against VEGF-receptor tyrosine kinase: the test is conducted using Flt-1 VEGF-receptor tyrosine kinase. […] The reaction is then ended by the addition of 10 μl 0.25 M ethylenediaminetetraacetate (EDTA) pH 7. Using a multichannel dispenser (LAB SYSTEMS, USA), an aliquot of 20 μl is applied to a PVDF (=polyvinyl difluoride) Immobilon P membrane (Millipore, USA), which is incorporated into a Millipore microtitre filter manifold, and connected to a vacuum. Following complete elimination of the liquid, the membrane is washed 4 times successively in a bath containing 0.5% phosphoric acid (H3PO4), incubated for 10 minutes each time while shaking, then mounted in a Hewlett Packard TopCount Manifold and the radioactivity measured after the addition of 10 μl Microscint® (β-scintillation counter liquid; Packard USA).
The test is conducted using Flt-1 VEGF-receptor tyrosine kinase, as described hereinabove.

male Wistar rats = experiment: Rat adjuvant arthritis model, therapeutic dosing; type: in vivo; details: for % inhibition of swelling: day 15 to day 22, swelling of the tarsal joints
Text: The well-known rat adjuvant arthritis model (Pearson, Proc. Soc. Exp. Biol. 91, 95-101 (1956)) is used to test the anti-arthritic activity of compounds of the formula I, or salts thereof. Adjuvant Arthritis can be treated uwing two different dosing schedules: either (i) starting time of immunisation with adjuvant (prophylactic dosing); or from day 15 when the arthritic response is already established (therapeutic dosing). Preferably a therapeutic dosing schedule is used. For comparison, e.g. SDZ115-155 (=DUP697) is administered in a separate group.
(§1) In detail, male Wistar rats (5 animals per group, weighing epproximately 200 g, supplied by Iffa Credo, France) are injected i.d. (intra-dermally) at the base of the tail with 0.1 ml of mineral oil containing 0.6 mg of lyophilised heat-killed Mycobacterium tuberculosis. The rats are treated with the test compound (3, 10 or 30 mg/kg p.o. once per day), or vehicle (water) from day 15 to day 22 (therapeutic dosing schedule). At the end of the experiment, the swelling of the tarsal joints is measured by means of a mico-calliper. Percentage inhibition of paw swelling is calculated by reference to vehicle treated arthritic animals (0% inhibition) and vehicle treated normal animals (100% inhibition).
The rat adjuvant arthritis model is used to test the anti-arthritic activity of the compound of Example 1 of WO 98/35958, 1-(4-chloroanilino)-4-(4-pyridylmethyl)phthalazine dihydrochloride. The therapeutic dosing schedule with start of treatment at day 15 after induction of arthritis is used.
as §1, with “Method: Male Wistar” for “In detail, male Wistar”, “(5 rats” for “(5 animals”, “group, weight about” for “group, weighing epproximately”, “200 g;” for “200 g, supplied by”, “of lyophilized” for “of lyophilised”, “p.o. s.i.d. (=once a” for “p.o. once per”

male Sprague Dawley rats = experiment: Rat inflammatory hyperalgesia model (Randall-Selitto paw pressure test); type: in vivo; details: 30 mg/kg p.o., 1 and 2 hours after dosing
Description: In this model, the hyperalgesia caused by an intra-planar yeast injection is measured by applying increased pressure to the foot until the animal vocalizes or withdraws its foot from the applied pressure pad. The model is sensitive to COX inhibitors, and diclofenac at 3 mg/kg is used as a positive control.
Method: The baseline pressure required to induce vocalization or withdrawal of the paw of male Sprague Dawley rats (weighing approximately 180 g, supplied by Iffa Credo, France) is measured (2 hours before treatment), followed by an intra-planar injection of 100 μl of a 20% yeast suspension in water in the hind paw. […]
In this model, the hyperalgesia caused by an intra-planar yeast injection is measured by applying increased pressure to the foot until the animal vocalizes or withdraws its foot from the applied pressure pad. […]
Method: The baseline pressure required to induce vocalization or withdrawal of the paw of male Sprague Dawley rats (5 rats per group; weight approximately 180 g, Iffa Credo, France) is measured (2 hours before treatment), followed by an intra-planar injection of 100 μl of a 20% yeast suspension in water in the hind paw. […] Pressure is measured with the standard apparatus from Ugo Basile, Italy, for the paw pressure test (Randall-Selitto).

| Compound | IC50 [1] [nM] | melting point [°C] | other results |
| --- | --- | --- | --- |
| Cc1cccc(Nc2nnc(/C=C/c3cccnc3)c3ccccc23)c1 [1 (E isomer)] | 715 | – | – |
| Cc1cccc(Nc2nnc(/C=C\c3cccnc3)c3ccccc23)c1 [1 (Z isomer)] | 4900 | – | – |
| Cl.Cl.Clc1ccc(Nc2nnc(Cc3ccncc3)c3ccccc23)cc1 [1-(4-chloroanilino)-4-(4-pyridylmethyl)phthalazine dihydrochloride] | – | – | % inhibition of swelling (male Wistar rats; 3 mg/kg p.o. once a day): 0.8 ± 4.0%; % inhibition of swelling (male Wistar rats; 10 mg/kg p.o. once a day): 12.4 ± 5.0%; % inhibition of swelling (male Wistar rats; 30 mg/kg p.o. once a day): 37.0 ± 2.3%; inhibition of paw swelling (in words) (male Wistar rats; 3, 10 or 30 mg/kg p.o., dosing for 7 days from day 15): dose-related inhibition of paw swelling; overall discomfort experienced by rats while being held for oral dosing (male Wistar rats; observation in the adjuvant arthritis model): reduce the overall discomfort; inhibition of paw hyperalgesia (in words) (male Sprague Dawley rats): inhibits paw hyperalgesia |
| CS(=O)(=O)c1ccc(-c2cc(Br)sc2-c2ccc(F)cc2)cc1 [115–155, reference compound] | – | – | % inhibition of swelling (male Wistar rats; 3 mg/kg p.o. once a day): 53.8 ± 2.7% |
| Cc1cccc(Nc2nnc(CCc3cccnc3)c3ccccc23)c1 [Example 2] | 317 | 136 | – |

Further lines, with some results ahead:

| IC50 [1] [nM] | melting point [°C] | Compound | other results |
| --- | --- | --- | --- |
| – | 165 to 166 | FC(F)(F)c1cc(Nc2nnc(CCCc3cccnc3)c3ccccc23)ccc1Cl [Example 8, 1-(4-Chloro-3-trifluoromethylanilino)-4-[3-(pyridin-3-yl)propyl]phthalazine] | – |
| – | 232 to 233 | Cc1cc(Nc2nnc(Cc3ccncc3)c3ccccc23)nc(C)n1 [Example 15, 1-[(2,6-Dimethyl-pyrimidin-4-yl)-amino]4-(4-pyridyl-methyl)-phthalazine] | – |
| – | 184 to 185 | Cc1cc(Cc2nnc(Nc3cc(Br)cc(C(F)(F)F)c3)c3ccccc23)ccn1 [Example 23, 1-(3-Bromo-5-trifluoromethyl-anilino)-4-(2-methylpyridin-4-yl-methyl)-phthalazine] | – |
